In the experiment the target is USP14 (Homo sapiens (Human), UniProt P54578). The experiment can be described thus: Usp14 inhibition assay (Example 57B, B-series compounds). In kind it is biochemical. The note with it: IC50 class; average value from a minimum of two experimental determinations. From the text:
Example 57B: Usp14 Inhibition Assay
The IC50 values in the Table below represent the average value from a minimum of two experimental determinations.
USP14, sequence (P54578 whole entry, looked up): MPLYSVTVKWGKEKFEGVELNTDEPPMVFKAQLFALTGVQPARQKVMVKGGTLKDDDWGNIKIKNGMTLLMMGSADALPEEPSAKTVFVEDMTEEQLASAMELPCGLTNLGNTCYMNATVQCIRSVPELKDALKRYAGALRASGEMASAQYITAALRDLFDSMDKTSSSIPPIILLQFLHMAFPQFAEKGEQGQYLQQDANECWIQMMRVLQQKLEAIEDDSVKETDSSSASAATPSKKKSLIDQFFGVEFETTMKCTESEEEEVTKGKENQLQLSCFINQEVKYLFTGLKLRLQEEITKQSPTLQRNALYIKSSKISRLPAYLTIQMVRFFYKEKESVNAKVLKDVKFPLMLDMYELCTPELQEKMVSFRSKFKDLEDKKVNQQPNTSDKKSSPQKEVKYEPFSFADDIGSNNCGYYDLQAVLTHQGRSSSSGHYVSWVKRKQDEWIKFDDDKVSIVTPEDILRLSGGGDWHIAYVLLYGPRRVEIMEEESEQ
On to `Cc1c(C(=O)CN2[C@H]3CC[C@@H]2[C@@H](O)C3)cc(CC2(Cl)CCC2)n1-c1ccc(C#N)cc1` (racemic) [Example 157B, (±)-4-(5-((1-Chlorocyclobutyl)methyl)-3-(2-((1S,2R,4R)-2-hydroxy-7-azabicyclo[2.2.1]heptan-7-yl)acetyl)-2-methyl-1H-pyrrol-1-yl)benzonitrile], for which the IC50 – broadly, the point on the concentration scale where inhibition reaches its midpoint – lay in the range of 50 to 500 nM. `Cc1c(C(=O)CN2[C@H]3CC[C@@H]2[C@@H](O)C3)cc(CC23CC(C2)C3)n1-c1ccc(C#N)cc1` (racemic) [Example 158B, (±)-4-(5-(Bicyclo[1.1.1]pentan-1-ylmethyl)-3-(2-((1R,2S,4S)-2-hydroxy-7-azabicyclo[2.2.1]heptan-7-yl)acetyl)-2-methyl-1H-pyrrol-1-yl)benzonitrile]: the IC50 is more than 500 nM. Regarding `COCCCCc1cc(C(=O)CN2[C@@H]3CC[C@H]2[C@@H](O)C3)c(C)n1-c1ccc(C#N)cc1` (stereo in doubt) [Example 12B, (rel)-4-(3-(2-((1R,2R,4S)-2-Hydroxy-7-azabicyclo[2.2.1]heptan-7-yl)acetyl)-5-(4-methoxybutyl)-2-methyl-1H-pyrrol-1-yl)benzonitrile], the IC50 was less than 50 nM.

`COCCCCc1cc(C(=O)CN2[C@H]3CC[C@@H]2[C@H](O)C3)c(C)n1-c1ccc(C#N)cc1` (stereo in doubt) [Example 13B, (rel)-4-(3-(2-((1S,2S,4R)-2-Hydroxy-7-azabicyclo[2.2.1]heptan-7-yl)acetyl)-5-(4-methoxybutyl)-2-methyl-1H-pyrrol-1-yl)benzonitrile] gave an IC50 of less than 50 nM.

Take `Cc1c(C(=O)CN2C3CCC2C(O)C3)cc([C@H](C)C2CCC2)n1-c1ccc(C#N)cc1` (stereo in doubt) [Example 151B, 4-(5-((R)-1-Cyclobutylethyl)-3-(2-((2R)-2-hydroxy-7-azabicyclo[2.2.1]heptan-7-yl)acetyl)-2-methyl-1H-pyrrol-1-yl)benzonitrile]: the IC50 was more than 500 nM. Compound `Cc1c(C(=O)CN2C3CCC2CC3)c(C)n(-c2ccc(C#N)cc2)c1CCCCS(C)(=O)=O` [Example 1B, 4-(3-(2-(7-Azabicyclo[2.2.1]heptan-7-yl)acetyl)-2,4-dimethyl-5-(4-(methylsulfonyl)butyl)-1H-pyrrol-1-yl)benzonitrile] yielded an IC50 of more than 500 nM.

Take `Cc1c(C(=O)CN2[C@@H]3CC[C@@H]2CC(O)C3)cc(CCCCS(C)(=O)=O)n1-c1ccc(C#N)cc1` (stereo partly drawn) [Example 7B, 4-(3-(2-((1R,3r,5S)-3-Hydroxy-8-azabicyclo[3.2.1]octan-8-yl)acetyl)-2-methyl-5-(4-(methylsulfonyl)butyl)-1H-pyrrol-1-yl)benzonitrile]: the 50% inhibitory concentration (IC50) is less than 50 nM. `Cc1c(C(=O)CN2C3CCC2CC3)c(C)n(-c2ccc(C#N)cc2)c1-c1ccc(C#N)cc1` [Example 16B, 4,4′-(4-(2-(7-Azabicyclo[2.2.1]heptan-7-yl)acetyl)-3,5-dimethyl-1H-pyrrole-1,2-diyl)dibenzonitrile] showed a half-inhibitory concentration (IC50) of more than 500 nM.

As for `Cc1c(C(=O)CN2C3CCC2CC3)cc(CCCCS(C)(=O)=O)n1-c1ccc(Cl)cc1` [Example 18B, 2-(7-Azabicyclo[2.2.1]heptan-7-yl)-1-(1-(4-chlorophenyl)-2-methyl-5-(4-(methylsulfonyl)butyl)-1H-pyrrol-3-yl)ethan-1-one], the 50% inhibitory concentration (IC50) lay in the range of 50 to 500 nM. For the compound `Cc1c(C(=O)CN2C3CC4CC2CC(C3)O4)cc(C#CCCC#N)n1-c1ccc(C#N)cc1` [Example 21B, 4-(3-(2-((1r,3r,5r,7r)-2-Oxa-6-azaadamantan-6-yl)acetyl)-5-(4-cyanobut-1-yn-1-yl)-2-methyl-1H-pyrrol-1-yl)benzonitrile], the IC50 is 50 to 500 nM.

In turn, `Cc1c(C(=O)CN2C3CCC2CC3)cc(CC2CCS(=O)(=O)CC2)n1-c1ccc(Cl)cc1` [Example 25B, 2-(7-Azabicyclo[2.2.1]heptan-7-yl)-1-(1-(4-chlorophenyl)-5-((1,1-dioxidotetrahydro-2H-thiopyran-4-yl)methyl)-2-methyl-1H-pyrrol-3-yl)ethan-1-one] registered a half-inhibitory concentration (IC50) of 50 to 500 nM.

In turn, `Cc1c(C(=O)CN2C3CCC2CC3)cc(/C=C\CCS(C)(=O)=O)n1-c1ccc(C#N)cc1` [Example 26B] showed a half-maximal inhibitory concentration (IC50) of less than 50 nM. `Cc1c(C(=O)CN2C3CCC2CC3)cc(CCCCS(C)(=O)=O)n1-c1ccc(C#N)cc1` [Example 30B, 4-(3-(2-(7-Azabicyclo[2.2.1]heptan-7-yl)acetyl)-2-methyl-5-(4-(methylsulfonyl)butyl)-1H-pyrrol-1-yl)benzonitrile] returned an IC50 of less than 50 nM.

In turn, `Cc1c(C(=O)CN2C3CCC2CC3)cc(CCCCC#N)n1-c1ccc(Cl)cc1` [Example 31B, 5-(4-(2-(7-Azabicyclo[2.2.1]heptan-7-yl)acetyl)-1-(4-chlorophenyl)-5-methyl-1H-pyrrol-2-yl)pentanenitrile] gave a concentration for half-maximal inhibition (IC50) of 50 to 500 nM.

`Cc1c(C(=O)CN2C3CCC2CC3)c(C)n(-c2ccc(C#N)cc2)c1/C=C/CCS(C)(=O)=O` [Example 32B, (E)-4-(3-(2-(7-Azabicyclo[2.2.1]heptan-7-yl)acetyl)-2,4-dimethyl-5-(4-(methylsulfonyl)but-1-en-1-yl)-1H-pyrrol-1-yl)benzonitrile] showed an IC50 of 50 to 500 nM. Consider `Cc1c(C(=O)CN2C3CCC2CC3)cc(/C=C/CCS(C)(=O)=O)n1-c1ccc(Cl)cc1` [Example 34B, (E)-2-(7-Azabicyclo[2.2.1]heptan-7-yl)-1-(1-(4-chlorophenyl)-2-methyl-5-(4-(methylsulfonyl)but-1-en-1-yl)-1H-pyrrol-3-yl)ethan-1-one], for which the IC50 was less than 50 nM. Take `Cc1c(C(=O)CN2C3CCC2CC3)cc(/C=C/CCS(C)(=O)=O)n1-c1ccc(C#N)cc1` [Example 35B, (E)-4-(3-(2-(7-Azabicyclo[2.2.1]heptan-7-yl)acetyl)-2-methyl-5-(4-(methylsulfonyl)but-1-en-1-yl)-1H-pyrrol-1-yl)benzonitrile]: the IC50 was less than 50 nM.

With `Cc1c(C(=O)CN2C3CCC2CC3)cc(CC2COC2)n1-c1ccc(C#N)cc1` [Example 54B, 4-(3-(2-(7-Azabicyclo[2.2.1]heptan-7-yl)acetyl)-2-methyl-5-(oxetan-3-ylmethyl)-1H-pyrrol-1-yl)benzonitrile], the half-inhibitory concentration (IC50) was less than 50 nM. Consider `Cc1cc(C(=O)CN2C3CCC2CC3)c(C)n1-c1ccc(C#N)cc1` [Example 63B, 4-(3-(2-(7-Azabicyclo[2.2.1]heptan-7-yl)acetyl)-2,5-dimethyl-1H-pyrrol-1-yl)benzonitrile], for which the half-maximal inhibitory concentration (IC50) is more than 500 nM. The compound `Cc1cc(C(=O)CN2[C@@H]3CC[C@@H]2CC(O)C3)c(C)n1-c1ccc(C#N)cc1` (stereo partly drawn) [Example 66B, 4-(3-(2-((1R,3r,5S)-3-Hydroxy-8-azabicyclo[3.2.1]octan-8-yl)acetyl)-2,5-dimethyl-1H-pyrrol-1-yl)benzonitrile] registered an IC50 of 50 to 500 nM. `Cc1cc(C(=O)CN2[C@@H]3CC[C@@H]2CC(O)C3)c(C)n1-c1ccc(C#N)cc1` (stereo partly drawn) [Example 67B, 4-(3-(2-((1R,3s,5S)-3-hydroxy-8-azabicyclo[3.2.1]octan-8-yl)acetyl)-2,5-dimethyl-1H-pyrrol-1-yl)benzonitrile] returned a half-maximal inhibitory concentration (IC50) of 50 to 500 nM. The result for `Cc1cc(C(=O)CN2[C@@H]3CC[C@@H]2CC(C)(O)C3)c(C)n1-c1ccc(C#N)cc1` (stereo partly drawn) [Example 68B, 4-(3-(2-((1R,3r,5S)-3-Hydroxy-3-methyl-8-azabicyclo[3.2.1]octan-8-yl)acetyl)-2,5-dimethyl-1H-pyrrol-1-yl)benzonitrile] reads 50 to 500 nM; that for `Cc1cc(C(=O)CN2C3CCCC2CC3)c(C)n1-c1ccc(C#N)cc1` [Example 69B, 4-(3-(2-(8-Azabicyclo[3.2.1]octan-8-yl)acetyl)-2,5-dimethyl-1H-pyrrol-1-yl)benzonitrile], 50 to 500 nM; that for `Cc1cc(C(=O)CN2[C@@H]3CC[C@@H]2CC(O)(C(F)(F)F)C3)c(C)n1-c1ccc(C#N)cc1` (stereo partly drawn) [Example 74B, 4-(3-(2-((1R,3r,5S)-3-Hydroxy-3-(trifluoromethyl)-8-azabicyclo[3.2.1]octan-8-yl)acetyl)-2,5-dimethyl-1H-pyrrol-1-yl)benzonitrile], more than 500 nM.

`Cc1cc(C(=O)CN2[C@@H]3CC[C@@H]2CC(O)(C(F)(F)F)C3)c(C)n1-c1ccc(C#N)cc1` (stereo partly drawn) [Example 75B, 4-(3-(2-((1R,3s,5S)-3-Hydroxy-3-(trifluoromethyl)-8-azabicyclo[3.2.1]octan-8-yl)acetyl)-2,5-dimethyl-1H-pyrrol-1-yl)benzonitrile] returned a half-inhibitory concentration (IC50) of 50 to 500 nM. Regarding `Cc1cc(C(=O)CN2C3CC4CC(C3)CC2C4)c(C)n1-c1ccc(C#N)cc1` [Example 80B, 4-(3-(2-((5r,7r)-2-Azaadamantan-2-yl)acetyl)-2,5-dimethyl-1H-pyrrol-1-yl)benzonitrile], the IC50 is less than 50 nM. Regarding `Cc1cc(C(=O)CN2C3CC4CC2CC(O)(C4)C3)c(C)n1-c1ccc(C#N)cc1` [Example 81B, 4-(3-(2-((5s,7s)-5-Hydroxy-2-azaadamantan-2-yl)acetyl)-2,5-dimethyl-1H-pyrrol-1-yl)benzonitrile], the IC50 is 50 to 500 nM. `Cc1cc(C(=O)CN2C3CC4CC2CC(C3)O4)c(C)n1-c1ccc(C#N)cc1` [Example 84B, 4-(3-(2-((1r,3r)-2-Oxa-6-azaadamantan-6-yl)acetyl)-2,5-dimethyl-1H-pyrrol-1-yl)benzonitrile] yielded an IC50 of 50 to 500 nM. For `Cc1cc(C(=O)CN2C3CCCC2CC(O)C3)c(C)n1-c1ccc(C#N)cc1` [Example 85B, 4-(3-(2-((1R,3s,5S)-3-Hydroxy-9-azabicyclo[3.3.1]nonan-9-yl)acetyl)-2,5-dimethyl-1H-pyrrol-1-yl)benzonitrile], the IC50 was 50 to 500 nM. Turning to `Cc1cc(C(=O)CN2C3CCCC2CC(O)C3)c(C)n1-c1ccc(C#N)cc1` [Example 86B, 4-(3-(2-((1R,3r,5S)-3-Hydroxy-9-azabicyclo[3.3.1]nonan-9-yl)acetyl)-2,5-dimethyl-1H-pyrrol-1-yl)benzonitrile], the IC50 was 50 to 500 nM. `Cc1cc(C(=O)CN2C3CCCC2CCC3)c(C)n1-c1ccc(C#N)cc1` [Example 87B, 4-(3-(2-((1s,5s)-9-Azabicyclo[3.3.1]nonan-9-yl)acetyl)-2,5-dimethyl-1H-pyrrol-1-yl)benzonitrile]: the 50% inhibitory concentration (IC50) lay in the range of 50 to 500 nM.

Source of the values: patent US11560385B2, “Proteasome activity enhancing compounds” (Proteostasis Therapeutics, Inc., priority 2018, dated 2023).
